Test results from patent US7728036B2, “Methods for delivery of catecholic butanes for treatment of tumors” (priority 2003, dated 2010).

Experiments:
[1] = Tissue distribution after short-term oral feeding of M4N (HPLC); type: in vivo, mice
Procedure: Tissue Distribution and Toxicity Analysis Following Short-Term and Long-Term Oral Feeding. For short-term feeding experiments, 30 mg of M4N dissolved in 300 μL castor oil was orally administered to each of 6 mice. At 2 h, 4 h, and 8 h post-administration time points, 2 mice were sacrificed, the organs and blood were collected, and the M4N extracted and quantitated as described below. In long-term feeding experiments, mice were fed food balls consisting of M4N dissolved in corn oil and Basal Mix (Harlan Teklad; Madison, Wis.; Cat. # TD 02273) for 14 weeks. Food balls weighed 9 g and contained 242 mg M4N each. Two mice, one male and one female, were reserved for long-term drug retention studies; and fourteen mice, both male and female, were used for long-term drug toxicity studies. At the end of feeding, mice were sacrificed, the organs and blood were collected, and the M4N extracted and quantitated as described below.
M4N Extraction and HPLC Analysis Following Oral Feeding. Organs and blood were harvested from M4N-fed mice, then frozen overnight at −80° C. Prior to freezing, gastro-intestinal organs (stomach, small intestine, colon) were cut open longitudinally and washed thoroughly with PBS to remove any contents. The following day, organs were cut into small pieces on dry ice with a razor blade, dried in a Speed-vac, then crushed into a rough powder using a mortar and pestle. Samples were extracted overnight in 100% ethanol with shaking. Samples were centrifuged and the supernatant collected. Pellets were extracted two more times in 100% ethanol overnight with shaking. The pooled ethanol extracts were evaporated on bench top for several days, then re-extracted with ethyl acetate, and dried completely in a Speed-vac. The dried samples were then analyzed quantitatively by HPLC and M4N was identified by mass spectroscopy using pure M4N as a standard.
In samples from short-term fed mice, dialysis was performed to further purify M4N from the tissue extracts. Dried ethanol extracts were redissolved in 1.5 mL 100% EtOH and centrifuged for 5 min. The supernatant was collected and the pellet was resuspended in 0.4 mL ethanol and centrifuged again. The supernatant was pooled with the previous supernatant, then dialyzed overnight against 150 mL 100% EtOH. The dialysates were dried on bench top and in a speed-vac, then analyzed by HPLC.
HPLC Quantitation of M4N. Samples from a single mouse at each time point were sent to KP Pharmaceuticals (Bloomington, Ind.) for HPLC analysis. HPLC conditions were described as follows: 35%:0.1% TFA in H2O, 65%=“CAN.” The M4N standard was prepared by diluting 10.01 mg M4N in 100 mL of CAN, then sonicating for 5 min. (2002 ng/injection). The samples were prepared by adding 400 μL EtOH and sonicating for 2 min. or until complete dissolution was achieved. The injection volume for the samples was 100 μL.
The convenience and ease of oral administration, however, especially in the case of long-term post-surgical adjuvant treatment, would considerably facilitate drug administration to patients and would improve patient quality of life. Thus, in addition to i.p. and i.v. administration, the ability to systemically distribute M4N by oral administration was also investigated. In both short-term (<8 hours) feeding experiments and long-term (14 weeks) feeding experiments, M4N levels in various tissues and their in vivo toxicity was assessed. In short-term experiments, mice were fed 30 mg of M4N dissolved in castor oil (100 mg M4N/mL castor oil), and at 2, 4, and 8 hours post-feeding, the quantity of M4N present in various tissues was determined by HPLC.

[2] = Maximal tolerable dose study in beagle dogs, clinical observations; type: in vivo; conditions: over four hours
Procedure: Thus the M4N-DMSO group animals were administered with M4N-DMSO with eight intravenous injections via the non-VAP jugular vein every 30 minutes over a 4-hour period. This frequency of delivery mimicked the delivery of the test article using the infusion pump.
Animals from the CET group were observed during the entire infusion period and for at least one hour following end of infusion. The dogs in the DMSO group were observed throughout the jugular vein injection period and for at least one hour following the last (eighth) injection.

Solubility character = type: physicochemical
[3] = system: refractory head and neck carcinomas; type: in vivo, human
Source text: Eight male subjects and one […] participated. Mean weight was 139 lbs. (range 102 to 219 lbs.).

[4] = system: Hep3B hepatocellular carcinoma cells; assay: Xenograft assay of human tumors in athymic nude mice, Hep3B; type: in vivo
Source text: Xenograft Assay of Human Tumors.
Control mice received vehicle only.

[5] = mouse, in vivo
Procedure: M4N Tissue Distribution Studies Using ^3H-M4N. Harlan ICR mice or C3 cell-induced tumor-bearing C57bl/6 mice were injected via tail vein or intraperitoneally with 100 μL of Cremaphor-ethanol based solvent containing 100 μCi of tritiated M4N and 60 mM of cold M4N. At the specified time post-injection, the mice were sacrificed, the organs and blood were collected, weighed, then dissolved overnight in 4 M guanidine isothiocyanate (GITC). The insoluble pellet was then further extracted with EtOH. Tritium content of both the GITC extract and the EtOH extract was measured on a Packard scintillation counter and the quantity of M4N in each organ was calculated based on the specific activity of the inoculum.
To determine the distribution of M4N in tissues over time following a single application, and also to assess the ability to deliver M4N to a distant tumor, six C3 cell-induced tumor bearing mice (A-F) were treated i.p. with ^3H-M4N as described above. At 4 hours, 6 hours, 18 hours, and 6 days post-injection, the quantities of ^3H-M4N in various tissues and the tumors were measured.

[6] = Systemic tissue distribution of 3H-M4N 3 hours after single i.p. or i.v. injection; type: in vivo, mice
Procedure: M4N Tissue Distribution Studies Using ^3H-M4N. […] The insoluble pellet was then further extracted with EtOH.
At 3 hours post-injection, the organs and blood were harvested and weighed, and the M4N was extracted.

[7] = Hep 3B, of 7 M4N-treated tumors, 21 days i.p. treatment

## COc1ccc(C[C@@H](C)[C@@H](C)Cc2ccc(OC)c(OC)c2)cc1OC [M4N, meso-1,4-bis(3,4-dimethoxyphenyl)-2,3-dimethylbutane]
[1]; 2 hours post-feeding, 30 mg oral
  Quantity of M4N in each tissue: < 2 ng per gram tissue
[1]; 8 hours post-feeding
  M4N levels: decreased in nearly all organs
[1]; Bladder, 2 hours after oral 30 mg M4N in castor oil
  M4N (ng)/organ dry weight (g): 2.34 ng/g
[1]; Bladder, 4 hours after oral 30 mg M4N in castor oil
  M4N (ng)/organ dry weight (g): 1.69 ng/g
[1]; Bladder, 8 hours after oral 30 mg M4N in castor oil
  M4N (ng)/organ dry weight (g): 0 ng/g
[1]; Blood, 2 hours after oral 30 mg M4N in castor oil
  M4N (ng)/organ dry weight (g): 0.5 ng/g
[1]; Blood, 4 hours after oral 30 mg M4N in castor oil
  M4N (ng)/organ dry weight (g): 2.08 ng/g
[1]; Blood, 8 hours after oral 30 mg M4N in castor oil
  M4N (ng)/organ dry weight (g): 0 ng/g
[1]; Caecum, 2 hours after oral 30 mg M4N in castor oil
  M4N (ng)/organ dry weight (g): 1.11 ng/g
[1]; Caecum, 4 hours after oral 30 mg M4N in castor oil
  M4N (ng)/organ dry weight (g): 4.38 ng/g
[1]; Caecum, 8 hours after oral 30 mg M4N in castor oil
  M4N (ng)/organ dry weight (g): 6.55 ng/g
[1]; Fat, 2 hours after oral 30 mg M4N in castor oil
  M4N (ng)/organ dry weight (g): 0.11 ng/g
[1]; Fat, 4 hours after oral 30 mg M4N in castor oil
  M4N (ng)/organ dry weight (g): 0 ng/g
[1]; Fat, 8 hours after oral 30 mg M4N in castor oil
  M4N (ng)/organ dry weight (g): 0 ng/g
[1]; Heart, 2 hours after oral 30 mg M4N in castor oil
  M4N (ng)/organ dry weight (g): 0.83 ng/g
[1]; Heart, 4 hours after oral 30 mg M4N in castor oil
  M4N (ng)/organ dry weight (g): 0.11 ng/g
[1]; Heart, 8 hours after oral 30 mg M4N in castor oil
  M4N (ng)/organ dry weight (g): 1.16 ng/g
[1]; Kidneys, 2 hours after oral 30 mg M4N in castor oil
  M4N (ng)/organ dry weight (g): 0.12 ng/g
[1]; Kidneys, 4 hours after oral 30 mg M4N in castor oil
  M4N (ng)/organ dry weight (g): 0.61 ng/g
[1]; Kidneys, 8 hours after oral 30 mg M4N in castor oil
  M4N (ng)/organ dry weight (g): 0 ng/g
[1]; Lg. Intestine, 2 hours after oral 30 mg M4N in castor oil
  M4N (ng)/organ dry weight (g): 0.24 ng/g
[1]; Lg. Intestine, 4 hours after oral 30 mg M4N in castor oil
  M4N (ng)/organ dry weight (g): 8.24 ng/g
[1]; Lg. Intestine, 8 hours after oral 30 mg M4N in castor oil
  M4N (ng)/organ dry weight (g): 2.68 ng/g
[1]; Liver, 2 hours after oral 30 mg M4N in castor oil
  M4N (ng)/organ dry weight (g): 0.05 ng/g
[1]; Liver, 4 hours after oral 30 mg M4N in castor oil
  M4N (ng)/organ dry weight (g): 0.52 ng/g
[1]; Liver, 8 hours after oral 30 mg M4N in castor oil
  M4N (ng)/organ dry weight (g): 0 ng/g
[1]; Lungs, 2 hours after oral 30 mg M4N in castor oil
  M4N (ng)/organ dry weight (g): 0.43 ng/g
[1]; Lungs, 4 hours after oral 30 mg M4N in castor oil
  M4N (ng)/organ dry weight (g): 0 ng/g
[1]; Lungs, 8 hours after oral 30 mg M4N in castor oil
  M4N (ng)/organ dry weight (g): 2.7 ng/g
[1]; Pancreas, 2 hours after oral 30 mg M4N in castor oil
  M4N (ng)/organ dry weight (g): 0.57 ng/g
[1]; Pancreas, 4 hours after oral 30 mg M4N in castor oil
  M4N (ng)/organ dry weight (g): 24.69 ng/g
[1]; Pancreas, 8 hours after oral 30 mg M4N in castor oil
  M4N (ng)/organ dry weight (g): 2.97 ng/g
[1]; Seminal Vesicles, 2 hours after oral 30 mg M4N in castor oil
  M4N (ng)/organ dry weight (g): 0.21 ng/g
[1]; Seminal Vesicles, 4 hours after oral 30 mg M4N in castor oil
  M4N (ng)/organ dry weight (g): 0.37 ng/g
[1]; Seminal Vesicles, 8 hours after oral 30 mg M4N in castor oil
  M4N (ng)/organ dry weight (g): 0 ng/g
[1]; Small Intestine, 2 hours after oral 30 mg M4N in castor oil
  M4N (ng)/organ dry weight (g): 0.09 ng/g
[1]; Small Intestine, 4 hours after oral 30 mg M4N in castor oil
  M4N (ng)/organ dry weight (g): 8.42 ng/g
[1]; Small Intestine, 8 hours after oral 30 mg M4N in castor oil
  M4N (ng)/organ dry weight (g): 5.53 ng/g
[1]; Spleen, 2 hours after oral 30 mg M4N in castor oil
  M4N (ng)/organ dry weight (g): 1.1 ng/g
[1]; Spleen, 4 hours after oral 30 mg M4N in castor oil
  M4N (ng)/organ dry weight (g): 0.16 ng/g
[1]; Spleen, 8 hours after oral 30 mg M4N in castor oil
  M4N (ng)/organ dry weight (g): 0 ng/g
[1]; Stomach, 2 hours after oral 30 mg M4N in castor oil
  M4N (ng)/organ dry weight (g): 0.23 ng/g
[1]; Stomach, 4 hours after oral 30 mg M4N in castor oil
  M4N (ng)/organ dry weight (g): 45.03 ng/g
[1]; Stomach, 8 hours after oral 30 mg M4N in castor oil
  M4N (ng)/organ dry weight (g): 33.9 ng/g
[1]; pancreas, 4 hours post-feeding
  M4N present in tissue: Significant quantities
[1]; post-feeding, single oral 30 mg
  Time of peak M4N levels: roughly 4 hours
[2]; CET vehicle
  Dose safely administered by intravenous infusion: up to 10 mg/kg
[2]; DMSO vehicle
  Dose safely administered intravenously: up to 100 mg/kg
Solubility character
  Solubility in dimethyl sulfoxide: soluble in dimethyl sulfoxide
  Water solubility / hydrophilic or lipophilic character: hydrophobic or lipophilic
[3]; in vivo
  Damage to healthy tissue surrounding the tumor: No damage
  Dose delivered without drug-related toxicity: up to 495 mg weekly
  Other adverse events attributed to M4N: No other adverse events
  Relation of SAEs to study medication: unlikely or not related to study medication
  Serious Adverse Events reported: 6
  Subjects with Serious Adverse Events: 4 subjects
  Subjects with severe radiating pain on injection: One
  Subjects with sporadic mild elevations in LFTs: 2 subjects
[3]; of 6 subjects receiving three doses
  Subjects with drug related tumor necrosis after injection: 5 subjects
[3]; of the six patients completing three doses
  Patients with radiologically confirmed tumor volume reduction: three
[3]; patients that completed the treatment
  Efficacy in terms of induction of necrosis: over 80%
[4]; Hep 3B xenograft, 2 mg M4N i.p. daily for 3 weeks
  Tumor Volume Increase (%) - 21 Days Treatment, M4N-Treatment: 113%
[4]; Hep 3B xenograft, 2 mg M4N i.p. daily, 21 days
  Ratio of Mean M4N-Treated Tumor Size to Control Tumor Size: 19.3%
[4]; Hep 3B, after 21 days systemic M4N treatment
  Reduction in mean tumor volume versus control: 80%
[4]; [7]
  DOTV: number of tumors with decrease in volume from the original tumor volume: 2
  IOTV: number of tumors with increase in volume from the original tumor volume: 5
[5]
  M4N tissue levels relative to levels seen at 6 hours: 5-10%
[5]; ip
  M4N per gram of wet tumor: 294 ng per gram of wet tumor
  Time of peak M4N tissue levels: approximately 6 hours
[6]; heart or blood, 3 hours post-injection
  M4N detected in tissue: Little or no M4N
[6]; liver and fat, 3 hours post-injection
  M4N present in tissue: Significant quantities
[6]; mice, single injection
  Toxicity of systemic i.p. and i.v. injection: no apparent toxicity
